Columns and labels:
[1] = test system: larvae of common cutworm (Spodoptera litura); assay: Insecticidal effect against larvae of common cutworm (leaf immersion); type: in vivo; conditions: in Brassica oleracea
Protocol: Insecticidal Effect Against Larvae of Common Cutworm (Spodoptera litura)
(§1) A piece of cabbage leaf (diameter: 6 cm) was immersed for 1 minute in a water-diluted solution of the insecticide (wettable powder),of the present invention prepared according to the prescription of Formulation Example 1. After immersion, the cabbage was air-dried and placed in a plastic cup (inner diameter: 7 cm), and then inoculated with 5 larvae of common cutworm in the third stage therein (1-concentration, 2-repetion). The cup was allowed to stand in a room thermostated at 25° C. Four days after the inoculation, dead or alive larvae or suffuring larvae were counted, and mortality (%) was calculated wherein a suffering larva was regarded as 0.5 dead larva. When compounds of Compound Nos. described below were subjected to the test, the mortality was 100% in a compound concentration of 500 ppm. In the meanwhile, the Compounds Nos. correspond to ones in Tables 1 to 8.

[2] = test system: larvae of cabbage moth (Plutella xylostera); assay: Insecticidal effect against larvae of cabbage moth (leaf immersion); type: in vivo
Protocol: Insecticidal Effect Against Larvae of Cabbage Moth (Plutella xylostera)
as §1, with “powder) of” for “powder),of”, “cabbage moth” for “common cutworm”

Row | SMILES | mortality at 500 ppm [1] [%] | mortality at 500 ppm [2] [%]
1 | C/C(=N\Nc1ccc(Cl)cc1)C(=O)NNc1ccc(Cl)cc1 [Compound No. 104, (E)-N′-(4-chlorophenyl)-2-(4-chlorophenyl hydrazono) propionic acid hydrazide] | 100 | 100
2 | CC(=NN(C)c1ccc(C(F)(F)F)cc1)C(=O)NCc1ccc(Cl)nc1 [Compound No. 110, N-(6-chloro-3-pyridylmethyl)-2-[N-methyl-N-(4-trifluoromethylphenyl) hydrazono]propionic acid amide] | 100 | 100
3 | COc1ccc(CNC(=O)C(C)=NNc2ccc(Cl)cc2)cc1 [Compound No. 93, N-(4-methoxybenzyl)-2-(4-chlorophenyl hydrazono) propionic acid amide] |  | 100
4 | CC(=NN(C)c1ccc(C(F)(F)F)cc1)C(=O)NCc1ccc(Cl)cc1 [Compound No. 109, N-(4-chlorobenzyl)-2-[N-methyl-N-(4-trifluoromethylphenyl) hydrazono]propionic acid amide] | 100 | 100
5 | CC(=NNc1ccc(C(F)(F)F)cc1)C(=O)NCc1ccc(Cl)nc1 [Compound No. 63, N-(6-chloro-3-pyridylmethyl)-2-(4-trifluoromethylphenyl hydrazono) propionic acid amide] | 100 | 100
6 | CC(=NNc1ccc(C(F)(F)F)cc1)C(=O)NCc1ccc(Cl)cc1 [Compound No. 62, N-(4-chlorobenzyl)-2-(4-trifluoromethylphenyl hydrazono) propionic acid amide] | 100 | 100
7 | C/C(=N/Nc1ccc(Cl)cc1)C(=O)NNc1ccc(Cl)cc1 [Compound No. 105, (Z)-N′-(4-chlorophenyl)-2-(4-chlorophenyl hydrazono) propionic acid hydrazide] | 100 | 100
8 | CCOCC(=NNc1ccc(C(F)(F)F)cc1)C(=O)NCc1ccc(Cl)nc1 [Compound No. 170, N-(6-chloro-3-pyridylmethyl)-3-ethoxy-2-(4-trifluoromethylphenyl hydrazono) propionic acid amide] |  | 100
9 | O=C(NCc1ccc(Cl)nc1)C(Cl)=NNc1ccc(C(F)(F)F)cc1 [Compound No. 5, N-(6-chloro-3-pyridylmethyl)-2-chloro-2-(4-trifluoromethylphenyl hydrazono) acetic acid amide] |  | 100
10 | CNC(=NNc1ccc(C(F)(F)F)cc1)C(=O)NCc1ccc(Cl)nc1 [Compound No. 191, N-(6-chloro-3-pyridylmethyl)-2-methylamino-2-(4-trifluoromethylphenyl hydrazono) acetic acid amide] | 100 | 100
11 | N#CC(=NNc1ccc(C(F)(F)F)cc1)C(=O)NCc1ccc(Cl)nc1 [Compound No. 184, N-(6-chloro-3-pyridylmethyl)-2-cyano-2-(4-trifluoromethylphenyl hydrazono) acetic acid amide] | 100 | 100
